According to PubChem BioAssay (NCI):
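Protocol summary: plate cells (96-well), add compound at 5 concentrations, incubate 48 h, interpolate endpoints linearly. TGI: concentration producing complete growth inhibition.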

Columns and labels:
Experiment in all cases: inhibition of tumour cell growth, NCI panel, 48 h
A549 NSCLC = system: A549 NSCLC
ACHN renal = system: ACHN renal
DU-145 prostate = system: DU-145 prostate
HOP-62 NSCLC = system: HOP-62 NSCLC
HOP-92 NSCLC = system: HOP-92 NSCLC
MDA-N = system: MDA-N
NCI/ADR-RES ovarian = system: NCI/ADR-RES ovarian
OVCAR-5 ovarian = system: OVCAR-5 ovarian
PC-3 prostate = system: PC-3 prostate
SN12C renal = system: SN12C renal
SR leukemia = system: SR leukemia
SW-620 colon = system: SW-620 colon
UO-31 renal = system: UO-31 renal
HT29 colon = system: HT29 colon
KM12 colon = system: KM12 colon
UACC-62 melanoma = system: UACC-62 melanoma
CAKI-1 renal = system: CAKI-1 renal

Row | SMILES | TGI (A549 NSCLC) | TGI (ACHN renal) | TGI (DU-145 prostate) | TGI (HOP-62 NSCLC) | TGI (HOP-92 NSCLC) | TGI (MDA-N) | TGI (NCI/ADR-RES ovarian) | TGI (OVCAR-5 ovarian) | TGI (PC-3 prostate) | TGI (SN12C renal) | TGI (SR leukemia) | TGI (SW-620 colon) | TGI (UO-31 renal) | TGI (HT29 colon) | TGI (KM12 colon) | TGI (UACC-62 melanoma) | TGI (CAKI-1 renal)
1 | CC(NC(=O)OC(C)(C)C)C(=O)C(N)=O (centres undefined) | > 100 µM | > 100 µM | > 100 µM | > 100 µM | > 100 µM | > 100 µM | > 100 µM | > 100 µM | > 100 µM | > 100 µM | > 100 µM | > 100 µM | > 100 µM |  |  |  | 
2 | O=C(CCCl)NNC1=NCCN1 | > 100 µM | > 100 µM | > 100 µM | > 100 µM | > 100 µM | > 100 µM | > 100 µM | > 100 µM | > 100 µM | > 100 µM | > 100 µM | > 100 µM | > 100 µM | > 100 µM | > 100 µM | > 100 µM | 
3 | N/N=C1\CCCc2c1no[n+]2[O-] | > 100 µM | > 100 µM | > 100 µM | > 100 µM |  | > 100 µM | > 100 µM | > 100 µM | > 100 µM | > 100 µM | > 100 µM | > 100 µM | > 100 µM | > 100 µM | > 100 µM | > 100 µM | > 100 µM
4 | C=C1c2nc3ccccc3n2C=C(c2ccccc2)N1c1ccccc1 | > 100 µM | > 100 µM | > 100 µM |  | > 100 µM | > 100 µM | > 100 µM | > 100 µM | > 100 µM | > 100 µM | > 100 µM | > 100 µM | > 100 µM |  | 59.8 µM | > 100 µM | > 100 µM
5 | O=C(Cc1ccc(Cl)c(Cl)c1)N(CCc1ccc(Cl)c(Cl)c1)CCN1CCCC1 | 4.25 µM | 3.28 µM | 4.59 µM | 3.38 µM | 4.74 µM | 3.15 µM | 4.73 µM | 3.48 µM | 3.77 µM |  | 2.98 µM |  | 3.46 µM | 3.56 µM | 3.67 µM | 3.27 µM | 3.1 µM
6 | CN(C1=NCCO1)c1cccc2c1CCCC2 | > 10 µM | 8.09 µM | > 10 µM | > 10 µM |  | > 10 µM | > 10 µM | > 10 µM | 8.53 µM | > 10 µM | > 10 µM | > 10 µM |  | 5.2 µM | > 10 µM | > 10 µM | > 10 µM
7 | COC(=O)C(Cc1ccccc1)OC(=O)C(N)CC(=O)O (centres undefined) | > 100 µM | > 100 µM | > 100 µM | > 100 µM | > 100 µM | > 100 µM | > 100 µM | > 100 µM | > 100 µM | > 100 µM | > 100 µM | > 100 µM | > 100 µM | > 100 µM |  | > 100 µM | > 100 µM
8 | CCOC(=O)C1=c2[nH]c3cccc4cccc(c43)n2C=C(C(C)=O)C1CC(C)=O (centres undefined) | > 100 µM | > 100 µM | > 100 µM | > 100 µM | > 100 µM | > 100 µM | > 100 µM | > 100 µM | > 100 µM | > 100 µM | > 100 µM | > 100 µM | > 100 µM |  | > 100 µM | > 100 µM | > 100 µM
9 | O=C(CCc1cccc(O)c1)NCCc1ccc(O)cc1 | > 100 µM | > 100 µM | > 100 µM | > 100 µM | > 100 µM | > 100 µM | > 100 µM | > 100 µM | > 100 µM | > 100 µM | > 100 µM |  | > 100 µM | > 100 µM | > 100 µM | > 100 µM | > 100 µM
10 | CCOC(=O)[C@@]12CCC(C1=O)[C@](C)(O)C[C@@H]2c1ccccc1 | > 100 µM | > 100 µM | > 100 µM | > 100 µM | > 100 µM | 16.8 µM | > 100 µM | > 100 µM | > 100 µM | 72.3 µM |  | > 100 µM | > 100 µM | 73.2 µM | > 100 µM | > 100 µM | > 100 µM
11 | CCCCn1c2c(n(CCCC)c1=S)-c1c(n(CCCC)c(=S)n1CCCC)SSSS2 | > 95.1 µM | 7 µM | > 35.3 µM | 36.6 µM | 6.04 µM | 23.2 µM | 71.5 µM | 1.66 µM | 7.24 µM | 14.7 µM | > 100 µM | 3.8 µM | 2.64 µM | 7.91 µM | > 33.1 µM | 4.87 µM | 
12 | O=C1CC2(CCNCC2)C(=O)N1N1CCCC1 | > 100 µM | > 100 µM | > 100 µM | > 100 µM |  | > 100 µM | > 100 µM | > 100 µM | > 100 µM | > 100 µM | > 100 µM | > 100 µM | > 100 µM | > 100 µM | > 100 µM | > 100 µM | > 100 µM
13 | CCCCCCCCCCCCCCCCCCOCC(CO[P+](=O)O)OCCCCCCCCCCCCCCCCCC (centres undefined) | > 50 µM |  | > 50 µM |  | > 50 µM | > 50 µM | > 50 µM | > 50 µM | > 50 µM | > 50 µM | > 50 µM | > 50 µM |  | > 50 µM | > 50 µM |  | > 50 µM
